Test results taken from US20240018146A1, “COMPOSITIONS AND METHODS OF USING THE SAME FOR TREATMENT OF NEURODEGENERATIVE AND MITOCHONDRIAL DISEASE” (MITOKININ, INC., priority 2020, published 2024).
Where two headings read alike, the source gives them in different places.

How the values were obtained:
HeLa MKYP cells [1] = test: Cell death measured by DAPI staining, with 1 μM FCCP/oligomycin or no toxin (no FO); type: cell-based
Experimental: EP-0035985, EP-0037821, EP-0038098, and EP-0038099 in the presence of 1 μM FCCP/oligomycin or with no toxin (no FO) for 6 hrs. H2O2 treatment was performed as a control for cell death as measured by DAPI staining.
EP-0035985, EP-0038461, EP-0038463, and EP-0038503 in the presence of 1 μM FCCP/oligomycin or with no toxin (no FO) for 6.5 hrs. H2O2 treatment was performed as a control for cell death as measured by DAPI staining.
EP-0035985, EP-0038504, EP-0038508, and EP-0038521 in the presence of 1 μM FCCP/oligomycin or with no toxin (no FO) for 6.5 hrs. H2O2 treatment was performed as a control for cell death as measured by DAPI staining.
EP-0035985, EP-0038461, EP-0038463, EP-0038503, EP-0038504, EP-0038508, and EP-0038521 in the presence of 1 μM FCCP/oligomycin or with no toxin (no FO) for 6.5 hrs. H2O2 treatment was performed as a control for cell death as measured by DAPI staining.

HeLa MKYP cells [2] = test: Human mitophagy assay (HeLa mKeima assay, FACS); type: cell-based; settings: read-out: Mitophagy induction EC50
Experimental: Briefly, HeLa MKYP cells were plated at 10,000 cells/well in 96 well plates along with compounds at various concentrations. Following 16 hrs of incubation, cells were treated with 1 uM FCCP/oligomycin for 6 hours, then analyzed via FACS for the presence of mitochondria in lysosomes (as determined by an emissions spectrum shift from the pH-sensitive mtKeima tag).
Briefly, HeLa cells expressing a mitophagy indicator (mtKeima) protein were treated with […] of FCCP and Oligomycin followed by the specified dose of compound, then analyzed by FACS to quantify the percentage of cells undergoing mitophagy.

SMILES	Highest safe dose (cytotoxicity; no FO; safe means DAPI+ <20%) (HeLa MKYP cells [1]) [µM]	Max % death with 1 μM FO (HeLa MKYP cells [1]) [%]	EC50 (HeLa MKYP cells [2]; Homo sapiens, HeLa) [µM]	EC50 (HeLa MKYP cells [2]) [µM]
OC[C@H]1CCN(C2CCc3ccccc3C2Nc2ncnc3[nH]c(C(F)(F)F)cc23)C1 (mixture of isomers) [EP-0040121]	25.0	33.6	1.29	
Cc1ccc2c(c1)OC[C@H](N1CCOCC1)[C@H]2Nc1ncnc2[nH]c(C(F)(F)F)cc12 (racemic) [EP-0041045]	25.0	7.7	1.56	
[2H]C([2H])([2H])OC1CN([C@@H]2COc3ccccc3[C@H]2Nc2ncnc3[nH]c(C(F)(F)F)cc23)C1 (racemic) [EP-0041327]	25.0	4.1	> 25	
FC(F)OC1CN([C@H]2COc3ccccc3[C@@H]2Nc2ncnc3[nH]c(C(F)(F)F)cc23)C1 (racemic) [EP-0041354]	25.0	12.4		1.08
FC(F)OC1CN([C@H]2COc3ccccc3[C@@H]2Nc2ncnc3[nH]c(C(F)(F)F)cc23)C1 (racemic) [EP-0041542]	25.0	3.8		> 25
FC1(F)CN(C2COc3ccccc3C2Nc2ncnc3[nH]c(C4CC4)cc23)C1 (racemic) [EP-0041566]	25.0	30.0	1	
CC(=O)N1CCN(C2COc3ccccc3C2Nc2ncnc3[nH]c(C4CC4)cc23)CC1 (racemic) [EP-0041596]	25.0	15.3	2.72	
CN1CCN(C2COc3ccccc3C2Nc2ncnc3[nH]c(C4CC4)cc23)CC1=O (racemic) [EP-0041600]	25.0	4.9	> 25	
FC(F)(F)c1cc2c(N[C@H]3c4ccccc4CC[C@@H]3OCC3CCOCC3)ncnc2[nH]1 (single isomer, unassigned) [EP-0038523]	25.0	3.3	4.45	
OC[C@@H]1CCCN1[C@H]1CCc2ccccc2[C@@H]1Nc1ncnc2[nH]c(C(F)(F)F)cc12 (single isomer, unassigned) [EP-0039732]	25.0	6.2	> 25	
FC(F)(F)c1cc2c(N[C@H]3c4ccccc4CC[C@H]3OC3CCOCC3)ncnc2[nH]1 (single isomer, unassigned) [EP-0039733]	25.0	3.1	9.33	
c1ccc2c(c1)OC[C@@H](N1CCOCC1)[C@@H]2Nc1ncnc2[nH]c(C3CC3)cc12 (single isomer, unassigned) [EP-0040181]	25.0	5.9	> 25	
C[C@H]1COCCN1[C@@H]1CCc2ccccc2[C@H]1Nc1ncnc2[nH]c(C(F)(F)F)cc12 (single isomer, unassigned) [EP-0040182]	25.0	26.8		21.2
C[C@H]1COCCN1[C@@H]1CCc2ccccc2[C@H]1Nc1ncnc2[nH]c(C(F)(F)F)cc12 (single isomer, unassigned) [EP-0040193]	25.0	29.7		9.46
C[C@@H]1COCCN1[C@@H]1CCc2ccccc2[C@H]1Nc1ncnc2[nH]c(C(F)(F)F)cc12 (single isomer, unassigned) [EP-0040195]	25.0	12.0	18.5	
C[C@@H]1COCCN1[C@@H]1CCc2ccccc2[C@H]1Nc1ncnc2[nH]c(C(F)(F)F)cc12 (single isomer, unassigned) [EP-0040197]	25.0	8.4		22.7
c1ccc2c(c1)CC[C@H](N1C[C@H]3COC[C@H]3C1)[C@H]2Nc1ncnc2[nH]c(C3CC3)cc12 (single isomer, unassigned) [EP-0040248]	25.0	3.7	> 25	
c1ccc2c(c1)CC[C@@H](N1C[C@H]3COC[C@H]3C1)[C@@H]2Nc1ncnc2[nH]c(C3CC3)cc12 (single isomer, unassigned) [EP-0040249]	25.0	12.3	0.09	
FC(F)(F)c1cc2c(N[C@H]3c4ccccc4OC[C@@H]3N3CCOCC3)ncnc2[nH]1 (single isomer, unassigned) [EP-0040251]	25.0	3.1	> 25	
Fc1ccc2c(c1)OC[C@H](N1C[C@H]3COC[C@H]3C1)[C@H]2Nc1ncnc2[nH]c(C(F)(F)F)cc12 (single isomer, unassigned) [EP-0040268]	25.0	3.2	> 25	
Fc1ccc2c(c1)OC[C@H](N1C[C@H]3COC[C@H]3C1)[C@H]2Nc1ncnc2[nH]c(C3CC3)cc12 (single isomer, unassigned) [EP-0040326]	25.0	3.6		> 25
C[C@@H]1COCCN1[C@H]1CCc2ccccc2[C@@H]1Nc1ncnc2[nH]c(C3CC3)cc12 (single isomer, unassigned) [EP-0040339]	25.0	16.5	> 25	
C[C@@H]1COCCN1[C@H]1CCc2ccccc2[C@@H]1Nc1ncnc2[nH]c(C3CC3)cc12 (single isomer, unassigned) [EP-0040358]	2.8	97.8		> 25
c1ccc2c(c1)OC[C@H](N1C[C@H]3COC[C@H]3C1)[C@H]2Nc1ncnc2[nH]c(C3CC3)cc12 (single isomer, unassigned) [EP-0040391]	25.0	3.9	> 25	
C[C@@H]1CN([C@@H]2CCc3ccccc3[C@H]2Nc2ncnc3[nH]c(C(F)(F)F)cc23)CCO1 (single isomer, unassigned) [EP-0040492]	25.0	1.8	> 25	
C[C@@H]1CN([C@@H]2CCc3ccccc3[C@H]2Nc2ncnc3[nH]c(C(F)(F)F)cc23)C[C@H](C)O1 (single isomer, unassigned) [EP-0040494]	25.0	4.1	> 25	
C[C@@H]1CN([C@@H]2CCc3ccccc3[C@H]2Nc2ncnc3[nH]c(C4CC4)cc23)CCO1 (single isomer, unassigned) [EP-0040497]	25.0	4.3	6.97	
